{"source": "patent US10835500B2", "about": "“Medicament for accelerated wound healing” (Symrise AG, priority 2014, dated 2020)", "test_system": "ERK1/2 MAPK", "assay": "Western Blot, phosphorylation of ERK1/2 MAPK in HaCaT cells", "type": "cell-based, human", "conditions": "500 μM", "experimental": "In the following, an investigation was to be conducted to determine whether a MAPK signalling pathway is activated by Sandalore® stimulation in skin cells, and if so, which pathway is involved. For detection, HaCaT cells were stimulated for 0-30 min with 500 μM of Sandalore®, and the proteins were then isolated and used in Western Blot assays.\nIn order to reveal a possible interaction of the two MAPK signalling pathways, ERK1/2 phosphorylation in the presence of the p38 MAPK inhibitor SB203580 and p38 MAPK phosphorylation in the presence of the ERK1/2 MAPK inhibitor U0126 were investigated. Phosphorylation was increased for both kinases in the presence of the respective inhibitors compared to the cells stimulated with Sandalore® only. This effect was significant for p38 MAPK (FIG. 17c).\nEffect of Sandalore® stimulation on phosphorylation of MAP kinases in skin cells. A) Western Blot for investigating the phosphorylation of the MAP kinases in HaCaT cells stimulated for 0, 5, 15 and 30 min with Sandalore®(500 μM). In order to confirm uniform protein volume, ▪-tubulin was used as a control. ERK1/2: 42/44 kDa; p38: 43 kDa; JNK/SAPK: 46/54 kDA; ▪-tubulin: 52 kDa. B) Quantitative evaluation of p38 and ERK1/2 phosphorylation of HaCaT cells stimulated for 30 min with Sandalore®(500 μM) or additionally with the p38 inhibitor 5B203580 (10 μM) or ERK1/2 inhibitor U0126 (10 μM). For evaluation, the ratio of the phosphorylated (p) and unphosphorylated proteins was established and compared to that of untreated cells. Mean values including standard error. Mann-Whitney U test. *: p<0.05; ***: p<0.001. In C), the inhibitors of the respective other MAP kinase were used, and phosphorylation was compared to the cells stimulated with Sandalore® (500 μM) alone. Mean values including standard error. Mann-Whitney U test. *: p<0.05. The Western Blot analyses were carried out with three different protein isolations.", "data": [{"smiles": "CC1=CCC(CCC(C)C(C)O)C1(C)C", "note": "(centres unmarked) [Sandalore®]", "values": [{"measurement": "phosphorylation of ERK1/2 MAPK, quantification", "setting": "30-minute stimulation", "result": "significant increase"}, {"measurement": "phosphorylation of ERK1/2 MAPK", "setting": "within 5-30 min", "result": "increased phosphorylation"}]}]}
